Data: ChEMBL document CHEMBL5614418, “Discovery of novel dihydropyrrolidone-thiadiazole compound crosstalk between the YycG/F two-component regulatory pathway and cell membrane homeostasis to combat methicillin-resistant Staphylococcus aureus” (Eur J Med Chem, 2024)
In brackets after ≈: the same amount, converted by molar mass. Activity calls are given as the source filed them. The rule behind the calls is not given here.

Key:
[1] = system: Staphylococcus epidermidis; assay: Antibacterial activity against Staphylococcus epidermidis SE1457 by broth microdilution method; assay type: functional
Enterococcus faecalis = assay: Antibacterial activity against Enterococcus faecalis OG1RF by broth microdilution method; assay type: functional
[2] = Hemolytic activity against human erythrocytes measured after 1 hr; assay type: toxicity, cell-based, Erythrocyte
Staphylococcus aureus [3] = assay: Antibacterial activity against methicillin sensitive Staphylococcus aureus SA113 by broth microdilution method; assay type: functional
Enterococcus faecium = assay: Antibacterial activity against Enterococcus faecium EFM64 by broth microdilution method; assay type: functional
[4] = Cytotoxicity against human LX2 cells incubated for 24 hrs by CCK8 assay; assay type: toxicity, cell-based; details: LX-2 cells
Staphylococcus aureus [5] = assay: Bactericidal activity against Staphylococcus aureus USA300 assessed as planktonic cells killing by measuring log reduction in bacterial count at 8 times MIC measured after 24 hrs; assay type: functional, organism-based
[6] = system: Staphylococcus epidermidis; assay: Bactericidal activity against Staphylococcus epidermidis SE1457 assessed as planktonic cells killing by measuring log reduction in bacterial count at 8 times MIC measured after 24 hrs; assay type: functional, organism-based
[7] = system: Staphylococcus epidermidis; assay: Induction of matured biofilm eradication in Staphylococcus epidermidis SE1457 assessed as reduction in bacterial survival in biofilm at 8 times MIC incubated for 48 hrs by SYTO 9 staining based confocal fluorescence microscopic analysis; assay type: functional
[8] = system: Staphylococcus epidermidis; assay: Antibacterial activity against methicillin resistant Staphylococcus epidermidis SE1457 infected in BALB/c mouse wound model assessed as log reduction in wound bacterial load at 10 mg/kg, ip administered every 12 hrs for 3 times and measured after 48 hrs; assay type: functional
Staphylococcus aureus [9] = assay: Antibacterial activity against methicillin resistant Staphylococcus aureus USA300 infected in BALB/c mouse wound model assessed as log reduction in wound bacterial load at 10 mg/kg, ip administered every 12 hrs for 3 times and measured after 48 hrs; assay type: functional
Staphylococcus aureus [10] = assay: Antibacterial activity against methicillin resistant Staphylococcus aureus USA300 by broth microdilution method; assay type: functional
Staphylococcus aureus [11] = assay: Induction of matured biofilm eradication in methicillin resistant Staphylococcus aureus YUSA145 assessed as reduction in bacterial survival in biofilm at 8 times MIC incubated for 48 hrs by SYTO 9 staining based confocal fluorescence microscopic analysis; assay type: functional

MIC [1] [µM] | MIC (Enterococcus faecalis) [µM] | MIC (Staphylococcus aureus [3]) [µM] | MIC (Enterococcus faecium) [µM] | SMILES | HC50 at 1 h [2] [µM] | CC50 at 24 h [4] [µM] | Activity (Staphylococcus aureus [5]) | Activity [6] | Activity [7] [%] | log(activity) [8] | log(activity) (Staphylococcus aureus [9]) | MIC (Staphylococcus aureus [10]) [µg/mL] | Activity (Staphylococcus aureus [11]) [%]
> 100 | > 100 | > 100 | > 100 | O=C(C1=C(O)C(=O)N(c2nnc(SCc3ccccc3Cl)s2)C1c1ccccc1O)c1cc2ccccc2s1 (stereo unspecified) | > 200 | > 100 |  |  |  |  |  |  | 
> 100 | > 100 | > 100 | > 100 | O=C(C1=C(O)C(=O)N(c2nnc(SCc3ccccc3Cl)s2)C1c1ccccc1)c1cc2ccccc2o1 (stereo unspecified) | > 200 | > 100 |  |  |  |  |  |  | 
> 100 | > 100 | > 100 | > 100 | O=C(C1=C(O)C(=O)N(c2nnc(SCc3ccccc3)s2)C1c1ccccc1O)c1ccc(F)cc1 (stereo unspecified) | > 200 | > 100 |  |  |  |  |  |  | 
> 100 | > 100 | > 100 | > 100 | O=C(C1=C(O)C(=O)N(c2nnc(SCc3ccccc3)s2)C1c1ccc(O)c(O)c1)c1cc2ccccc2o1 (stereo unspecified) | > 200 | > 100 |  |  |  |  |  |  | 
50 (≈ 28.8 µg/mL) | > 100 | 100 (≈ 57.6 µg/mL) | > 100 | O=C(C1=C(O)C(=O)N(c2nnc(SCc3ccccc3Cl)s2)C1c1ccc(O)cc1)c1cc2ccccc2o1 (stereo unspecified) | > 200 | > 100 |  |  |  |  |  |  | 
> 100 | > 100 | > 100 | > 100 | COC(=O)COc1ccc(C2C(C(=O)c3cc4ccccc4o3)=C(O)C(=O)N2c2nnc(SCc3ccccc3Cl)s2)cc1 (stereo unspecified) | > 200 | > 100 |  |  |  |  |  |  | 
> 100 | > 100 | > 100 | > 100 | COc1cc(C2C(C(=O)c3cc4ccccc4o3)=C(O)C(=O)N2c2nnc(SCc3ccccc3)s2)ccc1O (stereo unspecified) | > 200 | > 100 |  |  |  |  |  |  | 
25 (≈ 14.4 µg/mL) | 50 (≈ 28.8 µg/mL) | 25 (≈ 14.4 µg/mL) | 50 (≈ 28.8 µg/mL) | O=C(C1=C(O)C(=O)N(c2nnc(SCc3ccc(Cl)cc3)s2)C1c1ccccc1O)c1cc2ccccc2o1 (stereo unspecified) | > 200 | > 100 |  |  |  |  |  |  | 
> 100 | > 100 | > 100 | > 100 | O=C(C1=C(O)C(=O)N(c2nnc(SCc3ccccc3)s2)C1c1ccccc1O)c1cc2ccccc2s1 (stereo unspecified) | > 200 | > 100 |  |  |  |  |  |  | 
> 100 | > 100 | > 100 | > 100 | O=C(C1=C(O)C(=O)N(c2nnc(SCc3ccccc3)s2)C1c1ccccc1O)c1ccc([N+](=O)[O-])cc1 (stereo unspecified) | > 200 | > 100 |  |  |  |  |  |  | 

SMILES | MIC [1] [µM] | MIC (Enterococcus faecalis) [µM] | MIC (Staphylococcus aureus [3]) [µM] | MIC (Enterococcus faecium) [µM] | HC50 at 1 h [2] [µM] | CC50 at 24 h [4] [µM] | Activity (Staphylococcus aureus [5]) | Activity [6] | Activity [7] [%] | log(activity) [8] | log(activity) (Staphylococcus aureus [9]) | MIC (Staphylococcus aureus [10]) [µg/mL] | Activity (Staphylococcus aureus [11]) [%]
CCCCCCCCCC(=O)N[C@@H](Cc1c[nH]c2ccccc12)C(=O)N[C@H](CC(N)=O)C(=O)N[C@@H](CC(=O)O)C(=O)N[C@@H]1C(=O)NCC(=O)N[C@@H](CCCN)C(=O)N[C@@H](CC(=O)O)C(=O)N[C@H](C)C(=O)N[C@@H](CC(=O)O)C(=O)NCC(=O)N[C@H](CO)C(=O)N[C@@H]([C@H](C)CC(=O)O)C(=O)N[C@@H](CC(=O)c2ccccc2N)C(=O)O[C@@H]1C | 2 (≈ 3.24 µg/mL) | 2 (≈ 3.24 µg/mL) | 2 (≈ 3.24 µg/mL) | 2 (≈ 3.24 µg/mL) |  |  | inactive | inactive | <50 | 1 | 1 | 2 (≈ 1.23 µM) | <50
